Patent publication US4681877A, “Pivaloyloxymethyl 7-β-[2-(2-amino-4-thiazolyl)-2-methoxyiminoacetamido]-3-(2-amino-1, 3-thiadiazolyl-5-thiomethyl)-3-cepheme-4-carboxylate and pharmaceutical composition containing the same” (Kureha Kagaku Kogyo Kabushiki Kaisha, priority 1982, dated 1987)
Like-named read-outs stand apart in the source and are kept apart here.

Experiments:
[1] = test system: Serratia marcescens IAM 1223; assay: Minimum growth-inhibition concentration (MIC), Serratia marcescens IAM 1223; type: cell-based; conditions: Mueller-Hinton agar, 18 to 24 hours at 37° C.
Description: (§1) The minimum inhibiting concentration(MIC) of the compound represented by the formula(I) and the compound represented by the formula(V) was measured according to the standard method of Japan Society of Chemotherapy against each of the following bacterial species:
(§2) Anti-bacterial activity of the compounds respectively produced in Examples 1, 2 and 3 was determined according to the standard method of Japanese Society of Chemotherapy as follows.
(§3) Each of the following bacterial strains was inoculated in Mueller-Hinton's culture medium and cultured for 18 to 48 hours at 37° C. to obtain a standard bacterial liquid containing 10^6 cells/ml.
(§4) Separately, agar plates were prepared by adding each of the solutions of each of the compounds respectively produced in Examples, 1, 2 and 3 at predetermined concentrations in amount of one ninth by weight to Mueller-Hinton's culture medium.

[2] = test system: Pseudomonas aeruginosa IAM 1514; assay: Minimum growth-inhibition concentration (MIC), Pseudomonas aeruginosa IAM 1514; type: cell-based; conditions: Mueller-Hinton agar, 18 to 24 hours at 37° C.
Description: as §1, §2, §3, §4

[3] = test system: test bacterial species; assay: Anti-bacterial activity (MIC) in general, all test species; type: cell-based; conditions: against the test bacterial species
Description: as §1
Escherichia coli IFO 12734
Staphylococcus aureus IAM 1011
Proteus vulgaris IAM 1025
Pseudomonas aeruginosa IAM 1514 and
Serratia marcescens IAM 1223

[4] = test system: Proteus vulgaris IAM 1025; assay: Minimum growth-inhibition concentration (MIC), Proteus vulgaris IAM 1025; type: cell-based; conditions: Mueller-Hinton agar, 18 to 24 hours at 37° C.
Description: as §1, §2, §3, §4

[5] = test system: Escherichia coli IFO; assay: Effects on infectious disease (mice infected with Escherichia coli IFO); type: in vivo; conditions: orally 100 mg/kg just after and 4 hours after inoculation; 7 days
Description: After inoculating a group consisting of 20 mice with Escherichia coli IFO intraperitoneously to be infected, the compound represented by the formula(V) was orally administered to the mice just after and after 4 hours of inoculation at a dose rate of 100 mg/kg body weight, and after 7 days of the administration, the effectiveness of the compound was judged by observing the death rate of each group of mice by the infection.
In the same manner, after inoculating another group consisting of 20 mice with Escherichia coli IFO intraperitoneously to be infected, the compound represented by the formula(I) was orally administered thereto just after and after 4 hours of inoculation at the dose rate of 100 mg/kg body weight, and after 7 days of the administration, the effectiveness of the compound was judged by observing the rate of survival of the mice.

[6] = Stability to rat liver homogenate (S-9 mix): rate of maintaining the antibacterial activity; type: in vitro ADME; conditions: S-9 mix
Description: For verifying the stability of the compound represented by the formula (I), 7-beta-[2-(2-amino-4-thiazolyl)-2-methoxyiminoacetamindo]-3-(-2-amino-1,3,4-thiadiazoyl-5-thiomethyl)-3-cepheme -4-carboxyulic acid in living body of the host, the following model experiment was carried out.
As a metabolism-activating enzyme, a rat liver homogenate (S-9, manufactured by Oriental Yeast Co.) was used in the following composition(referred to as S-9 mix, hereinafter):
After mixing 0.1 ml of a solution of the compound to be tested with 0.9 ml of S-9 mix or 0.9 ml of 0.1 M phosphoric acid buffer solution, the mixture was subjected to shaking culture for 20 min at 37° C. to prepare a test reaction solution for use in the following experiment.
Staphylococcus aureus IAM 1011 was inoculated to Mueller-Hinton'culture medium and the inoculum was cultured for 18 hours at 37° C. and after adjusting the number of the bacterial cells to 10^8 /ml of the culture medium, 50 times by weight of the Mueller-Hinton agar culture medium were added to the cultured medium to prepare flat culture plates. After placing a penicillin-cup of 8 mm in diameter on each of the thus prepared flat culture plates, 0.1 ml of the above-mentioned test reaction solution was introduced into the penicillin cup, and after leaving the system for 2 hours at 4° C., the system was incubated for 18 hours at 37° C., and the diameter of the growth-inhibition circle around the cup on the culture plate was determined.
By applying each of the thus determined diameters of the respective growth-inhibition circles on a diagram preliminarily prepared to indicate the relationship between the diameter of the growth-inhibition circle and the concentration of the compound in the culture medium before carrying out the culture, the concentration of the compound in the culture medium in the presence of S-9 mix was obtained(referred to as C2). […]

[7] = test system: Escherichia coli; assay: Effect on the experimental infectious disease on mice; type: in vivo, Escherichia coli; ddY-strain SPF mice; conditions: orally 100 mg/kg, ddY-strain SPF mice, 1.4×10^8 cells E. coli i.p.
Description: To each of the two groups of ddY-strain SPF mice, 1.4×10^8 cells of Escherichia coli was intraperitoneously inoculated to be infected, and just after or after 4 hours of the inoculation, the compound represented by the formula (I) was orally administered at a dose rate of 100 mg/kg.

[8] = test system: Staphylococcus aureus IAM 1011; assay: Minimum growth-inhibition concentration (MIC), Staphylococcus aureus IAM 1011; type: cell-based; conditions: Mueller-Hinton agar, 18 to 24 hours at 37° C.
Description: as §1, §2, §3, §4

[9] = test system: E. coli W 3636; assay: Minimum growth-inhibition concentration (MIC), E. coli W 3636; type: cell-based, Escherichia coli; conditions: Mueller-Hinton agar, 18 to 24 hours at 37° C.
Description: as §1, §2, §3, §4

[10] = test system: E. coli IFO 12734; assay: Minimum growth-inhibition concentration (MIC), E. coli IFO 12734; type: cell-based, Escherichia coli; conditions: Mueller-Hinton agar, 18 to 24 hours at 37° C.
Description: as §1, §2, §3, §4

[11] = test system: ICR-JCL mice; assay: Acute mammalian toxicity (LD50, 7-day mortality); type: in vivo; conditions: autopsy after 7 days, dead and live mice
Description: (§5) Acute mammalian toxicity of the compound represented by the formula(I) and the compound represented by the formula(V) was investigated by orally or intraperitoneally administering a series of aqueous physiological saline solution containing each of the above-mentioned compounds to groups of ICR-JCL mice, and observing the toxic symptoms appearing on the mice including the mortality for 7 days. Then, from the cumulative mortality, LD50 values were calculated by Litchfield-Wilcoxon's graphical method.

[12] = Acute mammalian toxicity (LD50, 7-day mortality); type: in vivo; conditions: mouse, in vivo
Description: as §5

CON=C(C(=O)N[C@@H]1C(=O)N2C(C(=O)O)=C(CSc3nnc(N)s3)CS[C@H]12)c1csc(N)n1 [Example 1, 7-beta-[2-(2-amino-4-thiazolyl)-2-methoxyiminoacetamido]-3-(2-amino-1,3,4-thiadiazolyl-5-thiomethyl)-3-cepheme-4-carboxylic acid]
Minimum growth-inhibition concentration (MIC) on Serratia marcescens IAM 1223 [1]: 0.2 | Minimum growth-inhibition concentration (MIC) on Pseudomonas aeruginosa IAM 1514 [2]: 12.5 | Anti-bacterial activity (MIC), in words [3]: strong and broad anti-bacterial activity | Minimum growth-inhibition concentration (MIC) on Proteus vulgaris IAM 1025 [4]: < 0.05 | Rate of survival [5]: over 55% | Stability to the action of rat liver homogenate, in words [6]: stable | remaining at 20 min ([6]; rat, liver homogenate s-9 mix, 20 min at 37° C., read-out: Rate of maintaining the antibacterial activity): 80% | Survival on the 7th day of infection [7]: more than 55% | Minimum growth-inhibition concentration (MIC) on Staphylococcus aureus IAM 1011 [8]: 0.78 | Minimum growth-inhibition concentration (MIC) on E. coli W 3636 [9]: 0.2 | Minimum growth-inhibition concentration (MIC) on E. coli IFO 12734 [10]: < 0.05 | Autopsy findings [11]: No noticeable information | LD50 at 168 h ([12]; ip, read-out: LD50 (intraperitoneous)): > 10000 mg/kg | LD50 at 168 h ([12]; po, read-out: LD50 (oral)): > 10000 mg/kg
